Results on two molecules are retold here after US20230132366A9, “METHODS FOR TREATING DYSREGULATED LIPID METABOLISM” (DENALI THERAPEUTICS INC., priority 2018, published 2023).

The assay concerns Trem2 KO BMDMs. Nature of the assay: In vitro lipid storage assay, Nile Red staining, BMDM treated with myelin. The class given is cell-based, mouse. As for the experimental part: Mouse femur and tibia bones were dissected and briefly sterilized with 70% ethanol. The bones were washed twice with HBSS, then cracked in 10 mL HBSS by mortar and pestle. The cell suspension was filtered through a 70 μm cell strainer, spun at 300×g for 5 min, and supernatant was discarded. The cell pellet was resuspended in ACK Lysing Buffer (Thermo Fisher A1049201) for 4 min at room temperature. 10 mL RPMI-1640 (Thermo Fisher)+10% Hyclone FBS (GE Healthcare)+ Penicillin-Streptomycin (Thermo Fisher) was added to stop ACK lysis, then spun 300×g 5 min, and supernatant was discarded. Cells were resuspended in RPMI culture media with 50 ng/mL murine M-CSF (Life Technologies, PMC2044), counted and diluted to 1×10^6 cells/mL, then plated on non-tissue culture treated petri dishes. Three days after seeding, fresh murine M-CSF (50 ng/mL) was added. Five days after seeding, cell culture media was aspirated and cells were washed once with PBS. Cells were resuspended in RPMI/FBS/Pen-Strep and harvested with a cell scraper. […]
For LC-MS, cells were extracted according to the protocol below. […] Lipid and filipin spots were analyzed using a spot-finding algorithm on the Harmony software supplied with the instrument. […] Cells were imaged at 63× resolution and Nile Red was quantified as total spot area (FIG. 5B) using a spot-finding algorithm on the Harmony software. […]

As for `C=C(c1ccc(C(=O)O)cc1)c1cc2c(cc1C)C(C)(C)CCC2(C)C` [bexarotene], the “neutral lipid accumulation (Nile Red)” value (myelin debris 25 ug/mL 48 h, co-treatment 10 uM) is on record as “reduced”.
Regarding “APOE3: recombinant human APOE3 added into the culture media”, the “neutral lipid accumulation (Nile Red, total spot area)” value (myelin 25 ug/mL 24 h, then APOE3 10 ug/mL 24 h) is given as “improved”.
